From patent publication US20260355361A1, “METHODS FOR DIAGNOSIS AND TREATMENT OF PULMONARY HYPERTENSION” (THE METHODIST HOSPITAL, priority 2022, published 2026) come the findings set out here.

In this assay the target is VEGFr2 (Rattus norvegicus, UniProt O08775). Put plainly: PET imaging of ^18F-ZD-G2 versus ^18FDG in MCT rat model of PAH. The class given is in vivo. As to conditions: early stage of PAH (MCT-10 days and MCT-2 weeks); PET at 60 minutes after injection. The procedure: Images of ^18F-ZD-G2 probe and ^18FDG were compared. Rats exposed to monocrotaline were used to develop pulmonary arterial hypertension rat model (MCT), while healthier rats were used as a control group.
Images of ^18F-ZD-G2 probe and ^18FDG were compared.
A PET imaging study was further performed with ^18F-ZD-G2 using MCT rat model as previous described. Healthy rats were used as control. Clinically used ^18FDG PET imaging was also performed on both groups of […] following the same imaging protocol for comparison.

Sequence of VEGFr2 (O08775 20-1343): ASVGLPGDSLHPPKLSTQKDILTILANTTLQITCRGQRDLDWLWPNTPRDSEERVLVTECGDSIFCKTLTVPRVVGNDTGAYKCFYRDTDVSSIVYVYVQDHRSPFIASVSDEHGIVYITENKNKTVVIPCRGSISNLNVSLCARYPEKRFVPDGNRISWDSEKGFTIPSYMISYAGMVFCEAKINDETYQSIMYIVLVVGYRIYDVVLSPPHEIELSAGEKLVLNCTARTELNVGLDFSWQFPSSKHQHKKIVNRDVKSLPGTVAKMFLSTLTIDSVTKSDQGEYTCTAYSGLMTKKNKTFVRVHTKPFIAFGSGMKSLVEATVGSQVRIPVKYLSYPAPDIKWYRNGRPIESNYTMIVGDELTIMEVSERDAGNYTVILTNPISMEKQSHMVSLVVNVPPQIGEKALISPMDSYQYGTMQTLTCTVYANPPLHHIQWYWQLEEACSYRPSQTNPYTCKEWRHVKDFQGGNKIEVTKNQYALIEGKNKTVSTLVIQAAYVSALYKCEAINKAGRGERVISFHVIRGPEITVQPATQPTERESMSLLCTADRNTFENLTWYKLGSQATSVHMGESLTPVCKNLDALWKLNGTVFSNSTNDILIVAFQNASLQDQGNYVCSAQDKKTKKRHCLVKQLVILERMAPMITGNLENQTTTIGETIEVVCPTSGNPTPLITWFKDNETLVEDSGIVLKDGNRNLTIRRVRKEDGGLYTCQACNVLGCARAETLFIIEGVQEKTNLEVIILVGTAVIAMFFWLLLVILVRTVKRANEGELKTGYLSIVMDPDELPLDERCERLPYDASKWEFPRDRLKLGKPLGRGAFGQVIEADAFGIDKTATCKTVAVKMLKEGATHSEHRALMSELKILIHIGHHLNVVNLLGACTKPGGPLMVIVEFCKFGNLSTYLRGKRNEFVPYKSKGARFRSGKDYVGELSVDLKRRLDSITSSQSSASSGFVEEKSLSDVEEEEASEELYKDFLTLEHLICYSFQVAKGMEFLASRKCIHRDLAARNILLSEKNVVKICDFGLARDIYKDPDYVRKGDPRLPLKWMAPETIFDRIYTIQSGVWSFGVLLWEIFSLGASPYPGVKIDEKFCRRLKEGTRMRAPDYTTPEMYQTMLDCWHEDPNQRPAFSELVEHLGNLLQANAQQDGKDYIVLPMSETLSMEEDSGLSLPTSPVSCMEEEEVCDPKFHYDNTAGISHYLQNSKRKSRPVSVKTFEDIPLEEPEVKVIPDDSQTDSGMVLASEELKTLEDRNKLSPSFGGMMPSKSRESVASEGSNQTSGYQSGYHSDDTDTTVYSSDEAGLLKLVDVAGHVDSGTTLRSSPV

With `OC[C@H]1OC(O)[C@H]([18F])[C@@H](O)[C@@H]1O` (stereo partly shown) [^18FDG], the “Lung uptake, MCT versus control” value is recorded as “no obvious difference”.
